From ChEMBL document CHEMBL3112450, “Synthesis and in vitro antitumor evaluation of primary amine substituted quinazoline linked benzimidazole” (Bioorg Med Chem Lett, 2014)

Test system: LOX IMVI
Assay: Cytotoxicity against human LOXIMVI cells assessed as cell growth at 10^-5 M after 48 hrs by SRB assay
Assay type: functional
Settings: read-out: Activity

SMILES	growth at 10 µM
C=CCn1c(C)nc2ccc(Nc3nc(NCCO)nc4ccccc34)cc21	88.5%

Test system: BT-549
Assay: Cytotoxicity against human BT549 cells assessed as cell growth at 10^-5 M after 48 hrs by SRB assay
Assay type: functional
Settings: BT-549, 48 h, read-out: Activity

SMILES	growth at 10 µM
C=CCn1c(C)nc2ccc(Nc3nc(NCCO)nc4ccccc34)cc21	96.5%

Test system: not listed separately
Assay: Cytotoxicity against human Hs578T cells assessed as cell growth at 10^-5 M after 48 hrs by SRB assay
Assay type: functional
Settings: Hs-578T, read-out: Activity

SMILES	growth at 10 µM
C=CCn1c(C)nc2ccc(Nc3nc(NCCO)nc4ccccc34)cc21	91.5%

Test system: SN12C
Assay: Cytotoxicity against human SN12C cells assessed as cell growth at 10^-5 M after 48 hrs by SRB assay
Assay type: functional
Settings: read-out: Activity

SMILES	growth at 10 µM
C=CCn1c(C)nc2ccc(Nc3nc(NCCO)nc4ccccc34)cc21	87.6%

Test system: OVCAR-3
Assay: Cytotoxicity against human OVCAR3 cells assessed as cell growth at 10^-5 M after 48 hrs by SRB assay
Assay type: functional
Settings: OVCAR-3, 48 h, read-out: Activity

SMILES	growth at 10 µM
C=CCn1c(C)nc2ccc(Nc3nc(NCCO)nc4ccccc34)cc21	98.3%

Test system: RXF 393
Assay: Cytotoxicity against human RXF393 cells assessed as cell growth at 10^-5 M after 48 hrs by SRB assay
Assay type: functional
Settings: RXF 393, 48 h, read-out: Activity

SMILES	growth at 10 µM
C=CCn1c(C)nc2ccc(Nc3nc(NCCO)nc4ccccc34)cc21	116%

Test system: SK-MEL-5
Assay: Cytotoxicity against human SK-MEL-5 cells assessed as cell growth at 10^-5 M after 48 hrs by SRB assay
Assay type: functional
Settings: SK-MEL-5, 48 h, read-out: Activity

SMILES	growth at 10 µM
C=CCn1c(C)nc2ccc(Nc3nc(NCCO)nc4ccccc34)cc21	96.5%

Test system: SNB-75
Assay: Cytotoxicity against human SNB75 cells assessed as cell growth at 10^-5 M after 48 hrs by SRB assay
Assay type: functional
Settings: SNB-75, 48 h, read-out: Activity

SMILES	growth at 10 µM
C=CCn1c(C)nc2ccc(Nc3nc(NCCO)nc4ccccc34)cc21	92.5%

Test system: DU-145
Assay: Cytotoxicity against human DU145 cells assessed as cell growth at 10^-5 M after 48 hrs by SRB assay
Assay type: functional
Settings: DU-145, 48 h, read-out: Activity

SMILES	growth at 10 µM
C=CCn1c(C)nc2ccc(Nc3nc(NCCO)nc4ccccc34)cc21	107%

Test system: NCI-H322M
Assay: Cytotoxicity against human NCI-H322M cells assessed as cell growth at 10^-5 M after 48 hrs by SRB assay
Assay type: functional
Settings: read-out: Activity

SMILES	growth at 10 µM
C=CCn1c(C)nc2ccc(Nc3nc(NCCO)nc4ccccc34)cc21	100%

Test system: A498
Assay: Cytotoxicity against human A498 cells assessed as cell growth at 10^-5 M after 48 hrs by SRB assay
Assay type: functional
Settings: A498, 48 h, read-out: Activity

SMILES	growth at 10 µM
C=CCn1c(C)nc2ccc(Nc3nc(NCCO)nc4ccccc34)cc21	78.3%

Test system: ACHN
Assay: Cytotoxicity against human ACHN cells assessed as cell growth at 10^-5 M after 48 hrs by SRB assay
Assay type: functional
Settings: read-out: Activity

SMILES	growth at 10 µM
C=CCn1c(C)nc2ccc(Nc3nc(NCCO)nc4ccccc34)cc21	104%

Test system: SK-OV-3
Assay: Cytotoxicity against human SKOV3 cells assessed as cell growth at 10^-5 M after 48 hrs by SRB assay
Assay type: functional
Settings: SK-OV-3, 48 h, read-out: Activity

SMILES	growth at 10 µM
C=CCn1c(C)nc2ccc(Nc3nc(NCCO)nc4ccccc34)cc21	109%

Test system: SW-620
Assay: Cytotoxicity against human SW620 cells assessed as cell growth at 10^-5 M after 48 hrs by SRB assay
Assay type: functional
Settings: SW-620, 48 h, read-out: Activity

SMILES	growth at 10 µM
C=CCn1c(C)nc2ccc(Nc3nc(NCCO)nc4ccccc34)cc21	97.7%

Test system: SR
Assay: Cytotoxicity against human SR cells assessed as cell growth at 10^-5 M after 48 hrs by SRB assay
Assay type: functional
Settings: read-out: Activity

SMILES	growth at 10 µM
C=CCn1c(C)nc2ccc(Nc3nc(NCCO)nc4ccccc34)cc21	104%

Test system: TK-10
Assay: Cytotoxicity against human TK10 cells assessed as cell growth at 10^-5 M after 48 hrs by SRB assay
Assay type: functional
Settings: TK-10, 48 h, read-out: Activity

SMILES	growth at 10 µM
C=CCn1c(C)nc2ccc(Nc3nc(NCCO)nc4ccccc34)cc21	124%

Test system: RPMI-8226
Assay: Cytotoxicity against human RPMI8226 cells assessed as cell growth at 10^-5 M after 48 hrs by SRB assay
Assay type: functional
Settings: RPMI-8226, 48 h, read-out: Activity

SMILES	growth at 10 µM
C=CCn1c(C)nc2ccc(Nc3nc(NCCO)nc4ccccc34)cc21	95.7%

Test system: HT-29
Assay: Cytotoxicity against human HT-29 cells assessed as cell growth at 10^-5 M after 48 hrs by SRB assay
Assay type: functional
Settings: HT-29, 48 h, read-out: Activity

SMILES	growth at 10 µM
C=CCn1c(C)nc2ccc(Nc3nc(NCCO)nc4ccccc34)cc21	103%

Test system: SK-MEL-2
Assay: Cytotoxicity against human SK-MEL-2 cells assessed as cell growth at 10^-5 M after 48 hrs by SRB assay
Assay type: functional
Settings: SK-MEL-2, 48 h, read-out: Activity

SMILES	growth at 10 µM
C=CCn1c(C)nc2ccc(Nc3nc(NCCO)nc4ccccc34)cc21	127%

Test system: HOP-92
Assay: Cytotoxicity against human HOP92 cells assessed as cell growth at 10^-5 M after 48 hrs by SRB assay
Assay type: functional
Settings: HOP-92, 48 h, read-out: Activity

SMILES	growth at 10 µM
C=CCn1c(C)nc2ccc(Nc3nc(NCCO)nc4ccccc34)cc21	73.9%

Test system: 786-0
Assay: Cytotoxicity against human 786-0 cells assessed as cell growth at 10^-5 M after 48 hrs by SRB assay
Assay type: functional
Settings: 786-0, 48 h, read-out: Activity

SMILES	growth at 10 µM
C=CCn1c(C)nc2ccc(Nc3nc(NCCO)nc4ccccc34)cc21	95.7%

Test system: NCI-H23
Assay: Cytotoxicity against human NCI-H23 cells assessed as cell growth at 10^-5 M after 48 hrs by SRB assay
Assay type: functional
Settings: NCI-H23, 48 h, read-out: Activity

SMILES	growth at 10 µM
C=CCn1c(C)nc2ccc(Nc3nc(NCCO)nc4ccccc34)cc21	92.7%

Test system: K562
Assay: Cytotoxicity against human K562 cells assessed as cell growth at 10^-5 M after 48 hrs by SRB assay
Assay type: functional
Settings: K562, 48 h, read-out: Activity

SMILES	growth at 10 µM
C=CCn1c(C)nc2ccc(Nc3nc(NCCO)nc4ccccc34)cc21	92.2%

Test system: OVCAR-8
Assay: Cytotoxicity against human OVCAR8 cells assessed as cell growth at 10^-5 M after 48 hrs by SRB assay
Assay type: functional
Settings: OVCAR-8, 48 h, read-out: Activity

SMILES	growth at 10 µM
C=CCn1c(C)nc2ccc(Nc3nc(NCCO)nc4ccccc34)cc21	99%

Test system: not listed separately
Assay: Cytotoxicity against human OVCAR4 cells assessed as cell growth at 10^-5 M after 48 hrs by SRB assay
Assay type: functional
Settings: OVCAR-4, 48 h, read-out: Activity

SMILES	growth at 10 µM
C=CCn1c(C)nc2ccc(Nc3nc(NCCO)nc4ccccc34)cc21	88.4%

Test system: CCRF-CEM
Assay: Cytotoxicity against human CCRF-CEM cells assessed as cell growth at 10^-5 M after 48 hrs by SRB assay
Assay type: functional
Settings: read-out: Activity

SMILES	growth at 10 µM
C=CCn1c(C)nc2ccc(Nc3nc(NCCO)nc4ccccc34)cc21	88.5%

Test system: T47D
Assay: Cytotoxicity against human T47D cells assessed as cell growth at 10^-5 M after 48 hrs by SRB assay
Assay type: functional
Settings: read-out: Activity

SMILES	growth at 10 µM
C=CCn1c(C)nc2ccc(Nc3nc(NCCO)nc4ccccc34)cc21	95.8%

Test system: SK-MEL-28
Assay: Cytotoxicity against human SK-MEL-28 cells assessed as cell growth at 10^-5 M after 48 hrs by SRB assay
Assay type: functional
Settings: SK-MEL-28, 48 h, read-out: Activity

SMILES	growth at 10 µM
C=CCn1c(C)nc2ccc(Nc3nc(NCCO)nc4ccccc34)cc21	99.3%

Test system: COLO 205
Assay: Cytotoxicity against human COLO205 cells assessed as cell growth at 10^-5 M after 48 hrs by SRB assay
Assay type: functional
Settings: COLO 205, 48 h, read-out: Activity

SMILES	growth at 10 µM
C=CCn1c(C)nc2ccc(Nc3nc(NCCO)nc4ccccc34)cc21	106%

Test system: PC-3
Assay: Cytotoxicity against human PC3 cells assessed as cell growth at 10^-5 M after 48 hrs by SRB assay
Assay type: functional
Settings: PC-3, 48 h, read-out: Activity

SMILES	growth at 10 µM
C=CCn1c(C)nc2ccc(Nc3nc(NCCO)nc4ccccc34)cc21	93.8%

Test system: SF-268
Assay: Cytotoxicity against human SF268 cells assessed as cell growth at 10^-5 M after 48 hrs by SRB assay
Assay type: functional
Settings: SF-268, 48 h, read-out: Activity

SMILES	growth at 10 µM
C=CCn1c(C)nc2ccc(Nc3nc(NCCO)nc4ccccc34)cc21	92.5%

Test system: Malme-3M
Assay: Cytotoxicity against human MALME-3M cells assessed as cell growth at 10^-5 M after 48 hrs by SRB assay
Assay type: functional
Settings: read-out: Activity

SMILES	growth at 10 µM
C=CCn1c(C)nc2ccc(Nc3nc(NCCO)nc4ccccc34)cc21	111%

Test system: HCT-15
Assay: Cytotoxicity against human HCT15 cells assessed as cell growth at 10^-5 M after 48 hrs by SRB assay
Assay type: functional
Settings: HCT-15, 48 h, read-out: Activity

SMILES	growth at 10 µM
C=CCn1c(C)nc2ccc(Nc3nc(NCCO)nc4ccccc34)cc21	113%

Test system: CAKI-1
Assay: Cytotoxicity against human Caki1 cells assessed as cell growth at 10^-5 M after 48 hrs by SRB assay
Assay type: functional
Settings: CAKI-1, 48 h, read-out: Activity

SMILES	growth at 10 µM
C=CCn1c(C)nc2ccc(Nc3nc(NCCO)nc4ccccc34)cc21	99%

Test system: HL-60(TB)
Assay: Cytotoxicity against human HL-60(TB) cells assessed as cell growth at 10^-5 M after 48 hrs by SRB assay
Assay type: functional
Settings: HL-60, 48 h, read-out: Activity

SMILES	growth at 10 µM
C=CCn1c(C)nc2ccc(Nc3nc(NCCO)nc4ccccc34)cc21	114%

Test system: SF-539
Assay: Cytotoxicity against human SF539 cells assessed as cell growth at 10^-5 M after 48 hrs by SRB assay
Assay type: functional
Settings: SF-539, 48 h, read-out: Activity

SMILES	growth at 10 µM
C=CCn1c(C)nc2ccc(Nc3nc(NCCO)nc4ccccc34)cc21	104%

Test system: A549
Assay: Cytotoxicity against human A549 cells assessed as cell growth at 10^-5 M after 48 hrs by SRB assay
Assay type: functional
Settings: A549, 48 h, read-out: Activity

SMILES	growth at 10 µM
C=CCn1c(C)nc2ccc(Nc3nc(NCCO)nc4ccccc34)cc21	99.9%

Test system: HOP-62
Assay: Cytotoxicity against human HOP62 cells assessed as cell growth at 10^-5 M after 48 hrs by SRB assay
Assay type: functional
Settings: HOP-62, 48 h, read-out: Activity

SMILES	growth at 10 µM
C=CCn1c(C)nc2ccc(Nc3nc(NCCO)nc4ccccc34)cc21	97.6%
